Laboratory results taken from patent US11040053B2, “Compositions and methods for activating “stimulator of interferon gene”13 dependent signalling” (CHINOOK THERAPEUTICS, INC., priority 2015, dated 2021).
Entries after “also recorded” stand apart in the source; their conditions may differ.

Columns and labels:
[1] = target: T1, reference (REF) STING allele (Homo sapiens, UniProt Q86WV6); test: Cytokine transcript induction (qRT-PCR) in STING^REF/REF hPBMCs; assay type: cell-based; settings: for relative normalized IFNβ expression, in words: FIGS. 8A-B, 2 hours stimulation, 100 μM to 0.1 μM; for cytokine responses (IFNβ, TNFα, IL-6, IFNγ, IL-12p40 expression), in words: FIGS. 9B-13B, 2 hours and 6 hours stimulation
T1 construct: endogenous in cells
Procedure: The induction of type I interferon was measured in human primary blood mononuclear cells (hPBMCs) to evaluate the potency of mono- or di-F-CDN compounds as described herein. hPBMCs from two unique donors were used: one donor was homozygous for the wild type (WT) STING allele (STING^WT/WT) and the other donor was homozygous for the so-called reference (REF) STING allele (STING^REF/REF). The STING genotype of these donors was determined by PCR amplification and sequencing: genomic DNA was isolated from 10^4 hPBMCs using Quick Extract DNA Extraction Solution (Epicentre) and was used to amplify regions of exon 3, 6, and 7 of the human STING gene.
Cells were incubated at 37° C., 5% CO2 with concentrations ranging from 100 μM to 0.1 μM of each CDN. After 2 hours (FIGS. 7 and 8) or 2 hours and 6 hours (FIGS. 9-13) stimulation, cells were harvested by centrifugation and washed once with phosphate-buffered saline. Cellular RNA was isolated using the Aurum Total RNA 96 Kit and cDNA was synthesized using the iScript cDNA Synthesis Kit. Target and reference gene expression was assessed by real-time qRT-PCR using PrimePCR probe assays and the CFX96 gene cycler (all reagents and equipment from BioRad). Normalized IFNβ expression was expressed relative to untreated cells. Target genes included type I interferon (IFNβ), Th1-associated cytokines (IFNγ, IL-12p40) and NF-kB dependent inflammatory cytokines (TNFα, IL-6). Reference genes included GUSB alone (FIGS. 7 and 8) or GUSB and HSP90AB1 (FIGS. 9-13).

[2] = tested on: B16.F10; test: B16.F10 melanoma mouse model, intra-tumoral injection; assay type: in vivo, C57BL/6 female mice; settings: FIG. 15A, IT 10 or 100 μg, three injections, vs HBSS
Procedure: To assess the ability of the fluorinated derivative compounds to promote anti-tumor immunity in diverse murine tumor models, tumor cells were implanted (in 100 μL PBS) subcutaneously on the lower back of 6-8 week old C57BL/6 female mice. Treatments began when tumors reached a volume of approximately 100 mm^3, on approximately day 14 post tumor implantation (see table below for tumor type, number of cells, and day of IT injection). The CDN compounds were administered by IT injection (10 or 100 μg in a total volume of 40 μL HBSS), and repeated every three days for a total of three injections. The compounds 3′3′-RR-(2′F-A)(2′F-A) and 3′3′-RR-(2′F-G)(2′F-A) and control mice given vehicle only (40 μL HBSS) were dosed. Tumors were measured twice weekly.

[3] = tested on: HIVgag p55 protein; test: Immunization with HIVgag p55 protein plus CDN, splenocyte IFNγ ELISPOT; assay type: in vivo, BALB/c mice; settings: 1 μg or 5 μg CDN in AddaVax with 5 μg HIVgag p55 s.c., day 7 IFNγ ELISPOT, vs no CDN; for HIVgag p55 antigen specific CD4+ T-cell response, in words: FIG. 16A
Procedure: To determine whether the fluorinated derivatives could elicit HIVgag-specific CD4^+ and CD8^+ T cell responses, BALB/c mice (n=4) were immunized subcutaneously with 0 μg (no CDN), 1 μg or 5 μg of CDN formulated in 2% squalene-and-water (AddaVax, Invivogen) with 5 μg HIVgag p55 protein. Seven days following the vaccination, spleens were harvested from the mice and splenocytes prepared. 2×10^5 splenocytes were stimulated overnight in an IFNγELISPOT assay with media alone (unstimulated) or with 1 μM HIVgag p55 CD4^+ and CD8^+ specific peptides. IFNγ ELISPOTs were developed and quantified using a CTL plate reader and ImmunoSpot software. 3′3′-RR-(2′F-A)(2′F-A) and 3′3′-RR-(2′F-G)(2′F-A) were evaluated for their ability to induce HIVgag-specific immune responses.

[4] = target: T2, hSTING(WT) (Homo sapiens, UniProt Q86WV6, H232R); test: IFN-β luciferase reporter in HEK293T cells stably expressing hSTING(WT), digitonin permeabilization; settings: FIGS. 5A-B, 0.1 μM to 100 μM and 6.25 μM CDN
Target sequence in this assay (Q86WV6 whole entry H232R, the tested form may be a part): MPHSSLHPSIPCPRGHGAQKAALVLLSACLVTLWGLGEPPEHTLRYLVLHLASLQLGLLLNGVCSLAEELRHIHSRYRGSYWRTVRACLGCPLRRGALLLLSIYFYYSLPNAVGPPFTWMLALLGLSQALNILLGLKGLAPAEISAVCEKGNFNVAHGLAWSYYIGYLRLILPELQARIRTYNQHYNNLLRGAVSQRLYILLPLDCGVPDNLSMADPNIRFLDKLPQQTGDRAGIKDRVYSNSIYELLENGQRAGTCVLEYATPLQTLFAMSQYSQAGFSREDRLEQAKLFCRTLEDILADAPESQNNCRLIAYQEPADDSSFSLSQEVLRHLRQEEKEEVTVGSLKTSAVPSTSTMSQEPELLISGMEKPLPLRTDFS
Procedure: 24 hours later, cells were stimulated with native and synthetic CDN derivative molecules using digitonin permeabilization to ensure uniform uptake.
After 20 min, the stimulation mixtures were removed and 200 ul of DMEM media supplemented with 10% (vol/vol) fetal bovine serum, 1% L-Glutamine, and 1% Penicillin/Streptomycin was added. Cells were incubated an additional 6 hours (37° C., 5% CO2) and then cell lysates were prepared and reporter gene activity measured on a Spectramax M3 luminometer using the Dual-Glo Luciferase Assay System (Promega, catalog #E2920) as described by the manufacturer. IFNβ firefly luciferase reporter gene activity was normalized to TK renilla luciferase gene activity and plotted as fold induction over activity in unstimulated cells (mean+/−s.e.m.).

[5] = target: T2, hSTING(WT); test: Differential scanning fluorometry (DSF) binding to purified hSTING WT; design: DNA encoding amino acids 140-379 (amino acid numbering corresponding to Swiss Prot Q86WV6); 6xHIS (N, cleaved yes); SUMO (N, cleaved yes); made in house; host or cells: Rosetta2 (DE3) E. coli; settings: for Tm shift compared with non fluorine substituted compounds and 2′3′-(G)(A), in words: FIG. 3, hSTING (WT); for binding relative to OH reference compound, in words / binding relative to naturally produced 2′3′-(G)(A), in words: Table 4 comment, wild type hSTING
Target sequence in this assay (Q86WV6 140-379 H232R): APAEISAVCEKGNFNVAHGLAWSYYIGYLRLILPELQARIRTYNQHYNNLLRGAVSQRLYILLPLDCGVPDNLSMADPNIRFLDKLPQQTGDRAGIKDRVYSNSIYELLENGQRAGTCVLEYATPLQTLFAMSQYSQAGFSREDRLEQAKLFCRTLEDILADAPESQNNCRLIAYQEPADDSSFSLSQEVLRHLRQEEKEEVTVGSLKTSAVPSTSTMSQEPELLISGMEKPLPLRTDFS

[6] = listed as 3′3′-RR-(2′F-G)(2′F-A)
[7] = listed as 3′3′-RR-(2′F-A)(2′F-A)

T1 sequence (Q86WV6 whole entry): as the sequence (Q86WV6 whole entry H232R, the tested form may be a part) above, with R232H counted along it

| Structure (SMILES) | IFNβ transcript level compared to cells similarly dosed with 2′3′-(G)(A) [1] | relative normalized IFNβ expression, in words [1, 6] | cytokine responses (IFNβ, TNFα, IL-6, IFNγ, IL-12p40 expression), in words [1] | tumor volume, in words [2] | HIVgag p55 antigen specific CD4+ T-cell response, in words [3] | HIVgag p55 antigen specific CD8+ T-cell response, in words ([3]; FIG. 16B) | IFNβ luciferase reporter induction by hSTING(WT), in words [4, 6] | Tm shift compared with non fluorine substituted compounds and 2′3′-(G)(A), in words [5] | binding relative to OH reference compound, in words [5] | binding relative to naturally produced 2′3′-(G)(A), in words [5] | relative normalized IFNβ expression, in words [1, 7] | tumor volume, in words [2, 7] | IFNβ luciferase reporter induction by hSTING(WT), in words [4, 7] | hSTING Tm Shift WT ([5]; DSF, 1 mg/ml STING AA140-379, ligand 1 mM) [°C] |
| --- | --- | --- | --- | --- | --- | --- | --- | --- | --- | --- | --- | --- | --- | --- |
| Nc1nc2c(ncn2[C@@H]2O[C@@H]3CO[P@@](=O)(S)O[C@H]4[C@@H](F)[C@H](n5cnc6c(N)ncnc65)O[C@@H]4CO[P@@](=O)(S)O[C@H]3[C@H]2F)c(=O)[nH]1 (stereo in doubt) [Compound 14, 2-Amino-9-((2R,3R,3aR,5R,7aR,9R,10R,10aR,12R,14aR)-9-(6-amino-9H-purin-9-yl)-3,10-difluoro-5,12-dimercapto-5,12-dioxidooctahydro-2H,7H-difuro [3,2-d:3′,2′-j][1,3,7,9]tetraoxa[2,8]diphosphacyclododecin-2-yl)-1,9-dihydro-6H-purin-6-one] | 12- to 70 fold | stimulated dose-dependent production of IFNβ transcript; also recorded: more potent inducers of IFNβ transcript STING^REF/REF hPBMCs than 2′3′-(G)(A); also recorded: extremely potent stimulator of the REF STING allele | induced more robust dose-dependent responses of each of the cytokines tested | induced significant tumor inhibition as compared to HBSS | eliciting significant CD4+ T cell responses against HIVgag p55 | elicited significant CD8^+ T cell responses against HIVgag p55 | strongly induced IFNβ reporter activity by hSTING(WT); also recorded: more potently induced IFNβ reporter activity by hSTING(WT) than the compound 3′3′-(G)(A) | increased Tm shift | improved binding | improved binding |  |  |  |  |
| Nc1ncnc2c1ncn2[C@@H]1O[C@@H]2CO[P@@](=O)(S)O[C@H]3[C@@H](F)[C@H](n4cnc5c(N)ncnc54)O[C@@H]3CO[P@@](=O)(S)O[C@H]2[C@H]1F [Compound 6, (2R,3R,3aR,5R,7aR,9R,10R,10aR,12R,14aR)-2,9-bis(6-amino-9H-purin-9-yl)-3,10-difluoro-5,12-dimercaptooctahydro-2H,7H-difuro[3,2-d:3′,2′-j][1,3,7,9]tetraoxa[2,8]diphosphacyclododecine 5,12-dioxide] |  |  | induced more robust responses of all of the cytokines tested |  | eliciting significant CD4+ T cell responses against HIVgag p55 |  |  | increased Tm shift | improved binding | improved binding | stimulated dose-dependent production of IFNβ transcript; also recorded: more potent inducers of IFNβ transcript STING^REF/REF hPBMCs than 2′3′-(G)(A) | induced significant tumor inhibition as compared to HBSS; also recorded: complete tumor regression at the 100 μg dose | induced higher levels of IFNβ reporter activity by hSTING(WT) than the non-fluorine substituted compounds; also recorded: stimulated higher levels of IFNβ reporter activity by hSTING(WT) when compared to the endogenous cellular ligand 2′3′-(G)(A) | 19.3 |
